Reference: patent US7541463B2, “Sulfur-containing naphthalimide derivatives” (East China University of Science and Technology, priority 2003, dated 2009)

Tests used:
[1] = Body weight and deaths of S-180 bearing mice; type: in vivo
[2] = tested on: H22 hepatoma; assay: In vivo tumor inhibition, H22 hepatoma
[3] = tested on: S-180 sarcoma; assay: In vivo tumor growth inhibition, S-180 sarcoma in mice
[4] = tested on: DNA; assay: DNA double strand break (further studies)
[5] = tested on: tumor cell cycle; assay: Tumor cell cycle arrest (further studies); type: cell-based; conditions: significantly dose-dependent
[6] = tested on: human lung adenocarcinoma cell A-549; assay: Growth inhibition of A-549 cells, SRB protein staining assay; type: cell-based; conditions: read-out: Growth inhibition effect to A-549 cell strain
[7] = tested on: mice leukemia cell P388; assay: Growth inhibition of P388 cells, MTT assay; type: cell-based; conditions: Mus musculus, read-out: Growth inhibition effect to P388 cell strain
Summary of the method: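 P388 cells seeded in log phase, 24 h before serial dilutions of compound were added in triplicate; exposure 48 h at 37 °C, 5% CO2. MTT added for 4 h, formazan solubilised with SDS–isobutanol–HCl overnight, absorbance read at 570 nm; % growth inhibition calculated relative to untreated control cells.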

[8] = tested on: tumor cell; assay: Tumor cell apoptosis (further studies); type: cell-based
[9] = tested on: S-180 sarcoma; assay: In vivo tumor growth inhibition, S-180 sarcoma in mice; remark: listed apart in the source
Procedure: S-180 sarcoma developed for 7-11 days and in good growth trend was homogenated into cell suspension. The cell suspension was inoculated subcutaneously into right armpit of female KM mice (18˜22 g) (about 1.0−2.5×10^6 cells/mouse). After 24 h, the mice were grouped in random with compounds administrated by i.p. injection. From the next day on, the mice were given serial dosages. After treatment, animals were killed, and solid tumors were removed and weighed after the body weight were weighed. The inhibition rate was calculated as follows, and T-test was carried out: [(Average tumor weight of NS group−Average tumor weight of test group)/Average tumor weight of NS group]×100%.

Compound: CN(C)CCN1C(=O)c2cccc3c2c(cc2c4ccccc4sc32)C1=O [compound 16, N-(N′,N′-dimethylaminoethyl)benzo[b]thieno[2,1-c]naphthalimide]
- Weight of mice (g) Day 7 ([1]; 12.5 mg/kg i.p): 26.9 g
- Weight of mice (g) Day 7 ([1]; 25 mg/kg i.p): 18.6 g
- Weight of mice (g) Day 7 ([1]; 50 mg/kg i.p): 12.9 g
- tumor inhibition (in words) ([2]; 7.5 mg/kg): not active
- tumor inhibition rate ([2]; i.p. 15 mg/kg): 51.0%
- tumor inhibition rate ([2]; i.p. 30 mg/kg): 72.6%
- Tumor growth inhibition % ([3]; 12.5 mg/kg i.p): 29.6%
- Tumor growth inhibition % ([3]; 50 mg/kg i.p): 95.6%
- Weight of tumor (g) mean ± SD ([3]; 50 mg/kg i.p): 0.08 ± 0.04 g
- DNA double strand break [4]: induce the broken of DNA double strand
- tumor cell cycle arrest [5]: arrest tumor cell cycle in G2/M phase
- inhibition at 100 µM ([6]; A549, 10^−4 M): 97.1%
- inhibition at 10 µM ([6]; A549, 10^−5 M): 96.6%
- inhibition at 1 µM ([6]; A549, 10^−6 M): 85.2%
- inhibition at 0.1 µM ([6]; A549, 10^−7 M): 72.2%
- inhibition at 0.01 µM ([6]; A549, 10^−8 M): 55.3%
- inhibition at 100 µM ([7]; 10^−4 M): 100%
- inhibition at 10 µM ([7]; 10^−5 M): 95.9%
- inhibition at 1 µM ([7]; 10^−6 M): 68.2%
- inhibition at 0.1 µM ([7]; 10^−7 M): 21.4%
- inhibition at 0.01 µM ([7]; 10^−8 M): 13.8%
- tumor cell apoptosis [8]: trigger tumor cell apoptosis
- Weight of tumor (g) mean ± SD ([9]; S-180 sarcoma, 12.5 mg/kg i.p): 1.14 ± 0.29 g
- Tumor growth inhibition % ([9]; S-180 sarcoma, 25 mg/kg i.p): 71.6%
- Weight of tumor (g) mean ± SD ([9]; S-180 sarcoma, 25 mg/kg i.p): 0.46 ± 0.24 g
- activity against mice S180 sarcoma (in words) ([9]; i.p. injection): active
